Tests used:
[1] = test system: C. albicans hyphae formation; assay: filamentation assay (hyphal morphogenesis); assay type: cell-based, Candida albicans; conditions: for inhibition of hyphal formation and induction of RFP: 12.5 μM, Spider media 16 hours, HWP1-RFP reporter
Description: Because the ability to interconvert between yeast and hyphal morphologies is usually correlated with pathogenicity (Finkel, 2010), we explored this observation in more detail. First, we assessed the effect of our compounds on the induction of hyphae by “Spider” media (Chauhan, 2009). For this experiment, we used a strain that contains the hyphal-specific HWP1 promoter to the Red Fluorescent Protein (RFP) open reading frame (Ganguly, 2011), which provides a molecular reporter for hyphae formation that we used in addition to visual examination of cell morphology. We initially tested each of the compounds that inhibit adhesion to polystyrene (FIG. 1B), as well as compounds #9, Q1 and Q2 (FIG. 3A), at concentration of 12.5 μM. […] Compounds Q1 and Q2 share a “Scaffold 1” backbone with compounds #4 and #9, but contain a quinoline group (FIG. 3A). Therefore, the compounds with a quinoline group can inhibit hyphae formation, but not adhesion to polystyrene or human cells (FIG. 3). […] Additionally, multiple chemical backbones are able to inhibit hyphae formation, because compound #12 has a “Scaffold 2” backbone (Table 2). To better discriminate the inhibitory compounds, we tested #4, 12 and Q1 at lower concentrations. […] Furthermore, as in the polystyrene adhesion assay (FIG. 8), compound #4 is effective at inhibiting hyphae formation at concentrations >2.5 μM.
Overnight cultures of SC5314 or SGH584 were pregrown in uridine-supplemented SC media at 30° C. to an OD600>13 and diluted 1:10 into prewarmed Spider medium (1% Peptone (Difco), 1% Mannitol (Sigma) and 0.2% K2HPO4 (Sigma) (Chauhan, 2009) in glass tubes and grown for 16 hrs at 37° C. shaking at 200 rpm in the presence or absence of drugs as indicated. DIC and fluorescence images were acquired using a Zeiss Axiovert 200 inverted microscope equipped with a Qicam 12-bit Fast 1394 digital CCD camera (Qimaging). Image acquisition was carried out using Openlab 5 software (Improvison).
Because the ability to interconvert between yeast and hyphal morphologies is usually correlated with pathogenicity, we explored this in more detail, examining induction of hyphae upon carbon starvation (using Spider media). We used a strain that contains the Red Fluorescent Protein (RFP) open reading frame driven by the hyphal-specific HWP1 promoter (Ganguly et al., Eukaryotic Cell 10:1448, 2011), which provides a molecular reporter for hyphae formation in addition to cell morphology. […] Therefore, the shared backbone of these compounds correlates with inhibition of multiple activities.
Hyphal morphogenesis is induced by multiple stimuli that act via multiple signal transduction pathways and is mediated by a complex transcriptional network. […] We detected morphological difference between control and compound #4-treated cultures as early as 60 minutes in 10% serum, and 90 minutes in Spider media.

[2] = test system: C. albicans SC5314-GFP biofilm; assay: biofilm formation on silicone elastomers; assay type: cell-based, Candida albicans; conditions: for dry weight of biofilm / biofilm formation, visual inspection: 50 μM, 60 hrs; for biofilm formation, visual inspection: silicone mesh
Method: FIGS. 5A-5C. Effect of small molecules on biofilm formation in vitro. FIG. 5A is a series of photographs showing biofilm formation on silicone elastomers. Biofilm assay was performed with SC5314-GFP and edt1^Δ/Δ-GFP and photographed after 60 hrs. Indicated compounds were added at 50 μM. Turbid medium indicates planktonic cells unattached to silicone elastomers when biofilm formation is inhibited. Clear medium with the cell attached to the silicone elastomer indicate establishment of functional biofilm. Each treatment was done in triplicate. FIG. 5B is a graph showing quantitation of turbidity of medium. Media was removed from the wells, vortexed vigorously and the OD at 600 nm was measured in a spectrophotometer. FIG. 5C is a graph showing quantitation of dry weight of biofilm. Dry weight in mg of air-dried silicone elastomers.
Fungal biofilm formation on implanted medical devices is a serious medical problem because these biofilms can lead to life-threatening systemic infections. An established in vitro assay to study device colonization makes use of silicone mesh as a surrogate surface (Nobile, 2006). We tested how the compounds that affected polystyrene adhesion (FIG. 1) would affect biofilm formation by visual inspection of the biofilms formed, by measuring the optical density of the supernatant liquid cultures, and by measuring their dry weights. […] Therefore, compounds #4 and Q1 were effective inhibitors of both hyphal morphogenesis (FIG. 4) and biofilm formation on silicone mesh (FIG. 5).
We adapted a published method (Nobile, 2006, supra). Autoclaved, pre-weighed silicone mesh squares (Bentec, Catalog Number PR72034-04N) were incubated overnight at 37° C. with undiluted bovine serum. Following washing with PBS, the squares were transferred to 12-well plates and incubated with 0.5 OD/ml SC5314-GFP cells in Spider medium (with or without drugs as indicated), for 90 min at 37° C., shaking at 200 rpm. Squares were washed in PBS and transferred to new 12-well plates containing fresh Spider medium with fresh drugs and incubated for 60 hrs in a 37° C. shaker at 200 rpm. The plates were then photographed, the liquid media were collected for A600 nm measurements, and the dry weights of the bound biofilms were measured following drying of the silicone squares in a chemical hood.

SMILES	hyphae formation induced by Spider media ([1]; 10 μM)	inhibition of hyphal formation and induction of RFP [1]	earliest morphological difference between control and treated cultures ([1]; 10% serum) [minutes]	hyphal response to Spider media and mammalian serum ([1]; 37° C.)	concentrations effective at inhibiting hyphae formation ([1]; Spider media) [µM]	earliest morphological difference between control and treated cultures ([1]; Spider media) [minutes]	formation of hyphae ([1]; Spider media, HWP1-RFP reporter (Example 14))	time at which effect could be detected after Spider media addition ([1]; protein reporter assay)	dry weight of biofilm [2]	biofilm formation, visual inspection [2]	biofilm formation on silicone mesh ([2]; Example 14)
Cc1ccc(C(=O)N2CCN(c3ccc([N+](=O)[O-])cc3)CC2)cc1Cl [Compound 4]	completely blocked the hyphae formation	most potently inhibited hyphal formation and induction of RFP	60	inhibited the response to both these stimuli	> 2.5	90	blocked formation of hyphae	within two hours	most effective at reducing biofilm formation	most effectively kept the cells dispersed in the media rather than on the mesh	effective inhibitors of both hyphal morphogenesis and biofilm formation on silicone mesh
O=C(c1ccc(Cl)c(Cl)c1)N1CCN(c2ccc([N+](=O)[O-])cc2)CC1 [Compound 9]	–	most potently inhibited hyphal formation and induction of RFP	–	–	–	–	–	–	most effective at reducing biofilm formation	most effectively kept the cells dispersed in the media rather than on the mesh	–
